In ChEMBL document CHEMBL4689842, “EUbOPEN Chemogenomics Library wave 1” (2021):

Experiments:
Format in all cases: toxicity, cell-based
HEK-293T = experiment: Incucyte cell viability with HEK293T; conditions: human, 10 µM, compound concentration 10 uM
U2OS = experiment: Incucyte cell viability with U2OS; conditions: human, 10 µM, compound concentration 10 uM
Fibroblast = experiment: Incucyte cell viability with human fibroblast; conditions: 10 µM, compound concentration 10 uM
[1] = 0 h, replicate number 1, timepoint 0 hours
[2] = 0 h, replicate number 2, timepoint 0 hours
[3] = 6 h, replicate number 1, timepoint 6 hours
[4] = 12 h, replicate number 1, timepoint 12 hours
[5] = 18 h, replicate number 1, timepoint 18 hours
[6] = 24 h, replicate number 1, timepoint 24 hours
[7] = 6 h, replicate number 2, timepoint 6 hours
[8] = 12 h, replicate number 2, timepoint 12 hours
[9] = 18 h, replicate number 2, timepoint 18 hours
Further: filed as whole numbers so only -1 and 0 and 1 occur.

Row | Compound | Growth Rate (HEK-293T; [1]) | Growth Rate (HEK-293T; [2]) | Growth Rate (U2OS; [3]) | Growth Rate (U2OS; [4]) | Growth Rate (U2OS; [5]) | Growth Rate (U2OS; [6]) | Growth Rate (Fibroblast; [1]) | Growth Rate (Fibroblast; [7]) | Growth Rate (Fibroblast; [8]) | Growth Rate (Fibroblast; [5]) | Growth Rate (Fibroblast; [6]) | further results
1 | CN1CCc2c(c3ccccc3n2Cc2ccc(C(=O)NO)cc2)C1 [TUBASTATIN A] | 0 | 1 | 1 | 1 | 1 | 1 | 1 | 0 | 0 | 1 | 1 | Growth Rate (U2OS; [1]): 0; Growth Rate (Fibroblast; [9]): 0
2 | CSc1cccnc1N1CCN(Cc2nc3ccccc3[nH]2)CC1 [A-769] | 1 | 0 | 0 | 0 | 0 | 1 | 0 | 1 | 1 | 0 | 0 | Growth Rate (HEK-293T; [3]): 0; Growth Rate (HEK-293T; [4]): 0; Growth Rate (HEK-293T; [5]): 0; Growth Rate (HEK-293T; [6]): 0; Growth Rate (U2OS; [9]): 1; Growth Rate (Fibroblast; [2]): 1; Growth Rate (Fibroblast; [3]): 0; Growth Rate (Fibroblast; [4]): 0
